System: tissue plasminogen activator (t-PA)
Experiment: t-PA mRNA level after PMA treatment, one-step real-time RT-PCR on cell lysate
Assay type: cell-based
Conditions: HeLa cells, 100 and 10 nM PMA, 24 hours, normalized to 18S rRNA
Experimental: FIG. 3. Illustrates an example of measuring the levels of 18S rRNA and tPA mRNA in HeLa cells that were incubated with different concentrations of PMA by one-step, real-time RT-PCR in the ABI 7700. The cells were processed in 96-well plates using the methods of the invention.
Cells were grown overnight in 0.2 ml DME media with 10% FBS with equal number of cells in each well of a 96-well plate. After an overnight incubation, phorbol myristate acetate (PMA) is added to final concentrations of 100, 10, 1, 0.1, and 0 nM in the growth medium in replicates of eight. The cells were incubated at 37° C. for 24 hours. The 96-well plate and lid were placed on the Packard MultiPROBE® II HT Liquid Handling System from PerkinElmer Life Sciences on the proper deck positions. All proceeding steps were entered into the WinPrep for automation. The growth medium was removed and the cells washed with 1×PBS. A volume of 0.1 ml Cell Lysis Buffer is added to each well. The plate was moved to a heating tile, for example, a tile at 75°, and incubated for 10 minutes. […] The plate was shaken for 2 minutes. PMSF can be used when the heating tile cannot heat the sample to 75° C. to inactivate the proteinase K. Two μl DNase I (2 U/μl) was added to each well and the plate was moved to a 37° C. heating tile. The plate was incubated for 15 minutes while shaking. […] The plate was ready for one-step RT-PCR. […]

SMILES: CCCCCCCCCCCCCC(=O)O[C@@H]1[C@@H](C)[C@@]2(O)[C@@H](C=C(CO)C[C@]3(O)C(=O)C(C)=C[C@@H]23)[C@@H]2C(C)(C)[C@]12OC(C)=O [PMA, phorbol myristate acetate]
- stimulation of t-PA: ~29 fold
